In patent US10143695B2 (priority 2016, dated 2018):

Columns and labels:
[1] = system: BT474 cells (HER2 expressing cells); test: CellTiter-Glo cell viability assay, BT474; format: cell-based; settings: PBD compounds, 72 h incubation
Experimental: (§1) PBD compounds and conjugates thereof were evaluated for their antiproliferation properties in tumor cell lines in vitro using CellTiter-Glo® (Promega Corp). Cells were plated in black walled 96-well plate and allowed to adhere overnight at 37° C. in a humidified atmosphere of 5% CO2. BT474, SKBR3, NCI-N87 cells (HER2 expressing cells), JIMT1 cells (HER2 medium expression level cells) and MCF7 cells (HER2 low expressing levels cells) and were plated at a density of 5,000 cells per well. The next day the medium was replaced with 50 μL fresh medium and 50 μL of 2× stocks of PBD compounds or antibody-PBD conjugate were added to appropriate wells, mixed and incubated for 72 h. CellTiter-Glo® reagent was added to the wells at room temperature and the luminescent signal was measured after 10 min using a SpectraMax M5 plate reader (Molecular Devices). Dose response curves were generated using SoftMax Pro software. IC50 values were determined from four-parameter curve fitting.

[2] = system: JIMT1 cells (HER2 medium expression level cells); test: CellTiter-Glo cell viability assay, JIMT1; format: cell-based; settings: PBD compounds, 72 h incubation
Experimental: as §1

[3] = system: MCF7 cells (HER2 low expressing levels cells); test: CellTiter-Glo cell viability assay, MCF7; format: cell-based; settings: PBD compounds, 72 h incubation
Experimental: as §1

[4] = system: SKBR3 cells (HER2 expressing cells); test: CellTiter-Glo cell viability assay, SKBR3; format: cell-based; settings: PBD compounds, 72 h incubation
Experimental: as §1

[5] = system: NCI-N87 cells (HER2 expressing cells); test: CellTiter-Glo cell viability assay, NCI-N87; format: cell-based; settings: PBD compounds, 72 h incubation
Experimental: as §1

[6] = Phase I clinical evaluation; cited from earlier work

Compound | IC50 ([1]; Homo sapiens, BT-474) | IC50 ([2]; Homo sapiens, JIMT-1) | IC50 ([3]; Homo sapiens, MCF7) | IC50 ([4]; Homo sapiens, SK-BR-3) | IC50 ([5]; Homo sapiens, NCI-N87) | IC50 [1] | IC50 [2] | IC50 [3] | IC50 [4] | IC50 [5] | adverse effects noted [6] | maximum tolerated dose [6]
COc1cc2c(cc1OCCCC(=O)Nc1cn(C)c(C(=O)Nc3cc(C(=O)Nc4cc(C(=O)n5ccc6cc(N)ccc65)n(C)c4)n(C)c3)n1)N=C[C@@H]1Cc3ccccc3N1C2=O [Compound 78, (S)-N-(5-((5-(5-amino-1H-indole-1-carbonyl)-1-methyl-1H-pyrrol-3-yl)carbamoyl)-1-methyl-1H-pyrrol-3-yl)-4-(4-((8-methoxy-6-oxo-12a,13-dihydro-6H-benzo[5,6][1,4]diazepino[1,2-a]indol-9-yl)oxy)butanamido)-1-methyl-1H-imidazole-2-carboxamide] | 0.63 nM | 1.1 nM | 1.9 nM | 0.06 nM | 0.29 nM |  |  |  |  |  |  | 
C=C1C[C@H]2C=Nc3cc(OCCCC(=O)Nc4cn(C)c(C(=O)Nc5cc(C(=O)Nc6cc(C(=O)n7ncc8cc(N)ccc87)n(C)c6)n(C)c5)n4)c(OC)cc3C(=O)N2C1 [Compound 79, (S,Z)-N-(5-(5-(5-amino-1H-indazole-1-carbonyl)-1-methyl-1H-pyrrol-3-ylcarbamoyl)-1-methyl-1H-pyrrol-3-yl)-4-(4-(7-methoxy-2-methylene-5-oxo-2,3,5,11a-tetrahydro-1H-benzo[e]pyrrolo[1,2-a][1,4]diazepin-8-yloxy)butanamido)-1-methyl-1H-imidazole-2-carboxamide] | 0.66 nM | 2.1 nM | 2.6 nM | 0.09 nM | 0.31 nM |  |  |  |  |  |  | 
C=C1C[C@H]2C=Nc3cc(OCCCC(=O)Nc4cn(C)c(C(=O)Nc5cc(C(=O)Nc6cc(C(=O)Nc7ccc8[nH]ccc8c7)n(C)c6)n(C)c5)n4)c(OC)cc3C(=O)N2C1 [Compound 82, (S,Z)-N-(5-(5-(1H-indol-5-ylcarbamoyl)-1-methyl-1H-pyrrol-3-ylcarbamoyl)-1-methyl-1H-pyrrol-3-yl)-4-(4-(7-methoxy-2-methylene-5-oxo-2,3,5,11a-tetrahydro-1H-benzo[e]pyrrolo[1,2-a][1,4]diazepin-8-yloxy)butanamido)-1-methyl-1H-imidazole-2-carboxamide] |  |  |  |  |  | 32 nM | 10.8 nM | 27 nM | 3.6 nM | 7.9 nM |  | 
C=C1C[C@H]2C=Nc3cc(OCCCC(=O)Nc4cn(C)c(C(=O)Nc5cc(C(=O)Nc6cc(C(=O)n7ccc8cc(CN)ccc87)n(C)c6)n(C)c5)n4)c(OC)cc3C(=O)N2C1 [Compound 83, (S,Z)-N-(5-(5-(5-(aminomethyl)-1H-indole-1-carbonyl)-1-methyl-1H-pyrrol-3-ylcarbamoyl)-1-methyl-1H-pyrrol-3-yl)-4-(4-(7-methoxy-2-methylene-5-oxo-2,3,5,11a-tetrahydro-1H-benzo[e]pyrrolo[1,2-a][1,4]diazepin-8-yloxy)butanamido)-1-methyl-1H-imidazole-2-carboxamide] | 2.5 nM | 1.2 nM | 2.4 nM | 0.18 nM | 0.81 nM |  |  |  |  |  |  | 
C=C1C[C@H]2C=Nc3cc(OCCCC(=O)Nc4cn(C)c(C(=O)Nc5cc(C(=O)Nc6cnc7[nH]ccc7c6)n(C)c5)n4)c(OC)cc3C(=O)N2C1 [Compound 84, (S,Z)-N-(5-(1H-pyrrolo[2,3-b]pyridin-5-ylcarbamoyl)-1-methyl-1H-pyrrol-3-yl)-4-(4-(7-methoxy-2-methylene-5-oxo-2,3,5,11a-tetrahydro-1H-benzo[e]pyrrolo[1,2-a][1,4]diazepin-8-yloxy)butanamido)-1-methyl-1H-imidazole-2-carboxamide] | 5.4 nM | 3.6 nM | 3.8 nM | 0.66 nM | 1.5 nM |  |  |  |  |  |  | 
C=C1C[C@H]2C=Nc3cc(OCCCC(=O)Nc4cn(C)c(C(=O)Nc5cc(C(=O)Nc6cc(C(=O)n7ccc8cc(C(=O)OC)cnc87)n(C)c6)n(C)c5)n4)c(OC)cc3C(=O)N2C1 [Compound 85, (S,Z)-methyl 1-(4-(4-(4-(4-(7-methoxy-2-methylene-5-oxo-2,3,5,11a-tetrahydro-1H-benzo[e]pyrrolo[1,2-a][1,4]diazepin-8-yloxy)butanamido)-1-methyl-1H-imidazole-2-carboxamido)-1-methyl-1H-pyrrole-2-carboxamido)-1-methyl-1H-pyrrole-2-carbonyl)-1H-pyrrolo[2,3-b]pyridine-5-carboxylate] | 6.3 nM | 14.2 nM | 8 nM | 0.58 nM | 0.97 nM |  |  |  |  |  |  | 
C=C1C[C@H]2C=Nc3cc(OCCCOc4cc5c(cc4OC)C(=O)N4CC(=C)C[C@H]4C=N5)c(OC)cc3C(=O)N2C1 [SJG-136] |  |  |  |  |  |  |  |  |  |  | vascular leak syndrome, peripheral edema, liver toxicity and fatigue | 45 μg/m^2
